According to patent US20250302975A1, “METHODS AND COMPOSITIONS FOR AGONISING TLR3” (priority 2024, published 2025):

Columns and labels:
[1] = tested on: CT26 tumors induced by i.p. inoculation; conditions: reference [17]; cited from earlier work
RAW-Blue cells = RAW-Blue cells / Quanti-Blue SEAP assay, in vitro immunogenicity (Example 1); format: cell-based; parameters: dose or concentration left out as unconfirmed; conditions: 24 h
Method: RAW-Blue cells (InvivoGen) were grown in Dulbecco's Modified Eagle's Medium (DMEM) supplemented with 10% (v/v) heat-sterilized fetal bovine serum (FBS; Atlanta Biologicals) and 1% (v/v) penicillin/streptomycin (p/s; Thermo Fisher Scientific). Normocin ([…]) and zeocin ([…]) were also added according to the supplier's instructions (InvivoGen). CT26 cells obtained from the ATCC were grown in Roswell Park Memorial Institute (RPMI) 1640 medium and DMEM, respectively, each supplemented with 10% (v/v) FBS and 1% (v/v) p/s.
Lipopolysaccharide (LPS; InvivoGen) was used as a positive control. After the incubation, 20 μL of the supernatant was mixed with 180 μL of Quanti-Blue solution (InvivoGen) and incubated at room temperature for 6 h. The absorbance was then measured at 630 nm using a microplate reader (Tecan).

[2] = tested on: CT26 tumors induced by i.p. inoculation; assay: CT26 colon cancer i.p. model, i.p. treatment (Example 1); format: in vivo, BALB/c mice; conditions: for tumor growth inhibition: i.p. treatment on days 3, 10 and 17, compared to PBS control
Method: (§1) Female BALB/c and C57BL/6 mice (6-7 weeks old) were purchased from the Jackson Laboratory. All animal studies were approved by and conducted according to the regulation of the Institutional Animal Care and Use Committee of the University of California, San Diego. CT26 cells were administered via the intraperitoneal (i.p.) and subcutaneous (s.c.) routes. […] Treatments were administered three times at weekly intervals. The body circumference and weight were recorded for 40 days at 2-day intervals and mice were euthanized when the circumference reached ˜8 cm. To establish the CT26 colon cancer s.c. model, CT26 cells (1.5×10^5 cells in 15 μL PBS) were mixed with 15 μL Matrigel (Corning) and injected s.c. into the left flank of BALB/c mice. […] The tumor volumes, calculated using the equation tumor width^2×tumor length)/2, and body weight were recorded for 40 days at 2-day intervals and mice were euthanized when the tumor volume reached ˜1500 mm^3.

s.c. CT26 tumors = assay: CT26 colon cancer s.c. model, intratumoral treatment (Example 1); format: in vivo, BALB/c mice; conditions: i.t. treatment
Method: as §1

| Molecule | impact on CT26 tumors (previous work) [1] | SEAP levels versus PBS-treated control (RAW-Blue cells) | tumor growth inhibition [2] | body weight of CT26-bearing mice ([2]; weight gain is due to growth of the tumor) | tumor growth by day 26 (s.c. CT26 tumors) [fold] | survival rate ([2]; compared to mice treated with CCMV or poly(I:C) alone) | tumor volume (s.c. CT26 tumors; day 26) [mm^3] |
| --- | --- | --- | --- | --- | --- | --- | --- |
| ODN1826 | minimal impact |  |  |  |  |  |  |
| polyinosinic:polycytidylic acid [poly(I:C)] |  | did not differ significantly | slight inhibitory effect, albeit not statistically significant | increased | 30 |  |  |
| O=C1[O][Pt]2([NH][C@@H]3CCCC[C@H]3[NH]2)[O]C1=O [oxaliplatin] |  |  | significantly inhibited tumor growth |  |  | slightly increased the survival rate | ~233 |
